Source: patent US10537563B2, “Methods for treating ocular disease using inhibitors of CSF-1R” (NOVARTIS AG, priority 2016, dated 2020)

How the values were obtained:
Cdk7 cyclinH MAT1 = Cdk7 cyclinH MAT1 (Homo sapiens, UniProt P50613); assay: In vitro kinase assay (Table 1); type: biochemical
Dyrk3 = Dyrk3 (Homo sapiens, UniProt O43781); assay: In vitro kinase assay (Table 1); type: biochemical
KDR = KDR (Homo sapiens, UniProt P35968); assay: In vitro kinase assay (Table 1); type: biochemical; settings: KDR=VEGF receptor
Chain of KDR (P35968 20-1356, species assumed): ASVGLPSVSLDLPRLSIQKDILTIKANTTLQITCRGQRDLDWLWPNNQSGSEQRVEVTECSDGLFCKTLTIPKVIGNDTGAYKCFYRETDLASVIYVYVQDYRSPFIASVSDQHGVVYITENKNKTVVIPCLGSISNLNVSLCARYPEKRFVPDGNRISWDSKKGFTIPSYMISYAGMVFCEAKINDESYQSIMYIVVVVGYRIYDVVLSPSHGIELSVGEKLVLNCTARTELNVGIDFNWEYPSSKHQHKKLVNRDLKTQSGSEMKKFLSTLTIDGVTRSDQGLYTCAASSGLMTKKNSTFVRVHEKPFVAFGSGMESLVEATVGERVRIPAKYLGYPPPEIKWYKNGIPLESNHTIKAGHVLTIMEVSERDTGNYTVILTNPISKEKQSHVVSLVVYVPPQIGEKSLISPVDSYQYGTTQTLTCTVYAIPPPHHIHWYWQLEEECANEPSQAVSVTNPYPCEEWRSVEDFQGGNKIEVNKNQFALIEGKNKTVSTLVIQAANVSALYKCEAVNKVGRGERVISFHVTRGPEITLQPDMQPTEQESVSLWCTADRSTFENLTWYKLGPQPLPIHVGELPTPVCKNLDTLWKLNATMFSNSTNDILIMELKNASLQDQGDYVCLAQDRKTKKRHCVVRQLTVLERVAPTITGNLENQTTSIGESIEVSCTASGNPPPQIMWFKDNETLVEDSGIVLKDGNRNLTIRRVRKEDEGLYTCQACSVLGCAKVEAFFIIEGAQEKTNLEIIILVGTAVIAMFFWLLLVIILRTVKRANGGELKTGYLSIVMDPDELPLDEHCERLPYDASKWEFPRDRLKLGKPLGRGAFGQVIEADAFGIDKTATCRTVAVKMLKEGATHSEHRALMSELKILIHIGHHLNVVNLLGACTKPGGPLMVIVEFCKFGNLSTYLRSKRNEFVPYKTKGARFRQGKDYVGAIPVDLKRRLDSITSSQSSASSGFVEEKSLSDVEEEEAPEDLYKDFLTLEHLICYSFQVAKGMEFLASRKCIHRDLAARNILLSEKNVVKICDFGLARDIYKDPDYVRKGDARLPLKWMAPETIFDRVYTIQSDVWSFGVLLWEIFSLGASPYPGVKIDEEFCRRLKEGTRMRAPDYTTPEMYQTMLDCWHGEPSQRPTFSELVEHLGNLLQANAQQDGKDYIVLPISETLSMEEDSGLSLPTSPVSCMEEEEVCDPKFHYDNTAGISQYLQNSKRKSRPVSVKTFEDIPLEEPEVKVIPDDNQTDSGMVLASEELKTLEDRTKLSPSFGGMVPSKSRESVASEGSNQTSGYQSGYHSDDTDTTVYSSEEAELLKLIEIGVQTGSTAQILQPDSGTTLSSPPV

TRKB = TRKB (Homo sapiens, UniProt Q16620); assay: In vitro kinase assay (Table 1); type: biochemical
Chain of TRKB (Q16620 32-822, species assumed): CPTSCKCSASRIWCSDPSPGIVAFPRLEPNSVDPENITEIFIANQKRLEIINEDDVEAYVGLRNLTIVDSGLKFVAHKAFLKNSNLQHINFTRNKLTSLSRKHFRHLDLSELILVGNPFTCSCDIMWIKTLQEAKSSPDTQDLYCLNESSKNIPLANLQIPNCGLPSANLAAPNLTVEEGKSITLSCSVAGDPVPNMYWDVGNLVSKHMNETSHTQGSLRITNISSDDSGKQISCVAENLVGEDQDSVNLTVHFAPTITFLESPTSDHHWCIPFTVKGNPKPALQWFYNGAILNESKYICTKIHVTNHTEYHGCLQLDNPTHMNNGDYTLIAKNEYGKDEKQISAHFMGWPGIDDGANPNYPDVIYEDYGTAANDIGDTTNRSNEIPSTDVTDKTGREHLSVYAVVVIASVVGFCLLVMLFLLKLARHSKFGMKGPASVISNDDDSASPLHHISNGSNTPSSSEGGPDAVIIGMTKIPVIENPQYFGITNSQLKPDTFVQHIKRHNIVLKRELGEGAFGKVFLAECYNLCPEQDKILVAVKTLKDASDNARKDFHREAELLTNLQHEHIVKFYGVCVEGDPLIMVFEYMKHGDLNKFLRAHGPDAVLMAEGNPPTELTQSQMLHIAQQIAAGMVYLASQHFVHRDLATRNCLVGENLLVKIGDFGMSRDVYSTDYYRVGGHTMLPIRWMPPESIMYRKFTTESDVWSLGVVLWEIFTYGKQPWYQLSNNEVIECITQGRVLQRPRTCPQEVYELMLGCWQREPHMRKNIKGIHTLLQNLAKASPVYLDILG

PDGFRKalpha (h) = target: T1, PDGFRKalpha (h) (Homo sapiens, UniProt P16234); assay: Kinase profiling at Invitrogen; type: biochemical
T1 construct: purchased Invitrogen
T1 sequence (P16234 24-1089): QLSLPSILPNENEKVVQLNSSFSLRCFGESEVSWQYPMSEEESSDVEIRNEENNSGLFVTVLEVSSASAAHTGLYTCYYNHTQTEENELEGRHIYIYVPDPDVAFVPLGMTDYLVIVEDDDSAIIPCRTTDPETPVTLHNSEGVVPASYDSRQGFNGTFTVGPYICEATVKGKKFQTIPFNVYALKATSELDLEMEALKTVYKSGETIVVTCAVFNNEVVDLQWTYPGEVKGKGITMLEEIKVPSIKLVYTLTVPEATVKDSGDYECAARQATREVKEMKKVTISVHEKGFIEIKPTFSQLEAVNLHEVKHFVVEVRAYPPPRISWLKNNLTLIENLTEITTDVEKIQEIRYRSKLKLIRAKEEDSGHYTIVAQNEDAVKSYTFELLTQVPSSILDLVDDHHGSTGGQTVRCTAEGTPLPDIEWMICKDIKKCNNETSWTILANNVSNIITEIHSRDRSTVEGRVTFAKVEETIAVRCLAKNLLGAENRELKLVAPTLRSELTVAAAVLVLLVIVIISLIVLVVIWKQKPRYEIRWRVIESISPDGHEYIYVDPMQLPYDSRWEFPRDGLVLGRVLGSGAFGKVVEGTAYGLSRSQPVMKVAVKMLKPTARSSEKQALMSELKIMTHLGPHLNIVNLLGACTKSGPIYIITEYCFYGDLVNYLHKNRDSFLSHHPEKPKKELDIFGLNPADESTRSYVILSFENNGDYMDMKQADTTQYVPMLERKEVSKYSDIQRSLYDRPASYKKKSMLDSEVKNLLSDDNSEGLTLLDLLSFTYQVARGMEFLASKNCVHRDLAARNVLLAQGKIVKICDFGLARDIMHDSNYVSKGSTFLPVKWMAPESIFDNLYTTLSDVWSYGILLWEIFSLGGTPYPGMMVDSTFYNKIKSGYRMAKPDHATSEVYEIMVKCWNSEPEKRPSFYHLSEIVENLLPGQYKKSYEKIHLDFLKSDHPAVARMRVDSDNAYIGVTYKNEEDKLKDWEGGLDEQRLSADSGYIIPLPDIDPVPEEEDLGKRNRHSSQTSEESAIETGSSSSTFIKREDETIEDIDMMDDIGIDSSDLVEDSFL

Khs1 (h) = target: T2, Khs1 (h) (Homo sapiens, UniProt Q9Y4K4); assay: Kinase profiling at Invitrogen; type: biochemical
T2 construct: purchased Invitrogen
T2 sequence (Q9Y4K4 whole entry): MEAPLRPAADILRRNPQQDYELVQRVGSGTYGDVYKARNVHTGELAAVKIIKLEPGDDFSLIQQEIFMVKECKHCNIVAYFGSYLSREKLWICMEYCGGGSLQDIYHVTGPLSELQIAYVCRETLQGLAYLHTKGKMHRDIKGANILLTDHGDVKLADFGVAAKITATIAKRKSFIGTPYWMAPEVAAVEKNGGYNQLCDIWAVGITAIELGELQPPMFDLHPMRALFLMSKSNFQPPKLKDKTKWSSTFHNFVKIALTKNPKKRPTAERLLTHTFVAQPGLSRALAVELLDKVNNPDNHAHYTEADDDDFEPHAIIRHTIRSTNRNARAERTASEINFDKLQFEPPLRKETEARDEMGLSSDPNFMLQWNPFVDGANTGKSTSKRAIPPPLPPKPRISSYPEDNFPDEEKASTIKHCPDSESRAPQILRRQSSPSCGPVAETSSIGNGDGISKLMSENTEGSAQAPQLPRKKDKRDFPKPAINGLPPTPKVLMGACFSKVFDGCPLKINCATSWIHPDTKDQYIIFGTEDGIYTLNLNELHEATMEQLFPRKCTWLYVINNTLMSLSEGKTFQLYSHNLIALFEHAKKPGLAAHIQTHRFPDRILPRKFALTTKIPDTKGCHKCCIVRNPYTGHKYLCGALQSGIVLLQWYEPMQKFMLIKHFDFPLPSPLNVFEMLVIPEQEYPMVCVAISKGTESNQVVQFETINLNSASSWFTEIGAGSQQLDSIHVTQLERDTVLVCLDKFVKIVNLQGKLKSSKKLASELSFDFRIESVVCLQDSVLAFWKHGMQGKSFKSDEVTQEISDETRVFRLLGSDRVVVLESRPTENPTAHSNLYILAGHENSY

BaF-Tel-FGFR3 = target: T3, BaF-Tel-FGFR3 (Homo sapiens, UniProt P22607); assay: BaF3 proliferation assay; type: cell-based, murine
T3 construct: fused on or other part: P41212 (Transcription factor ETV6)

BaF-PTC3-RET = BaF-PTC3-RET (Homo sapiens, UniProt P07949); assay: BaF3 proliferation assay; type: cell-based, murine
BAF/Tel-FGFR4-Q4/sACP = target: T4, BAF/Tel-FGFR4-Q4/sACP (Homo sapiens, UniProt P22455); assay: BaF3 proliferation assay; type: cell-based, murine
T4 construct: fused on or other part: P41212 (Transcription factor ETV6)

BAF/Tel-MER-3.2 = target: T5, BAF/Tel-MER-3.2 (Homo sapiens, UniProt Q12866); assay: BaF3 proliferation assay; type: cell-based, murine
T5 construct: fused on or other part: P41212 (Transcription factor ETV6)

BAF/Tel-JAK2-1.2/sACP = target: T6, BAF/Tel-JAK2-1.2/sACP (Homo sapiens, UniProt O60674); assay: BaF3 proliferation assay; type: cell-based, murine
T6 construct: fused on or other part: P41212 (Transcription factor ETV6)
T6 sequence (O60674 849-1124 limits assumed, change not shown): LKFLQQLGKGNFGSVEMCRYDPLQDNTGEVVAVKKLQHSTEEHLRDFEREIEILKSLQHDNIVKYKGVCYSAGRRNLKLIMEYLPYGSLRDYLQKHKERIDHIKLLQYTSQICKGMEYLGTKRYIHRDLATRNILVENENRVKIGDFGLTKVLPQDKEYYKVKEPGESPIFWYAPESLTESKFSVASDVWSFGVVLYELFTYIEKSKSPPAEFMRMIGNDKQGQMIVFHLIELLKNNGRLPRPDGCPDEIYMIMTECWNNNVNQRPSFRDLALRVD

BAF/Tel-JAK1-S1.2/sACP = target: T7, BAF/Tel-JAK1-S1.2/sACP (Homo sapiens, UniProt P23458); assay: BaF3 proliferation assay; type: cell-based, murine
T7 construct: fused on or other part: P41212 (Transcription factor ETV6)

BAF/Tel-Src-3.1/sACP = target: T8, BAF/Tel-Src-3.1/sACP (Homo sapiens, UniProt P12931); assay: BaF3 proliferation assay; type: cell-based, murine
T8 construct: fused on or other part: P41212 (Transcription factor ETV6)

BAF/Tel-ZAP70-1.1/sACP = target: T9, BAF/Tel-ZAP70-1.1/sACP (Homo sapiens, UniProt P43403); assay: BaF3 proliferation assay; type: cell-based, murine
T9 construct: fused on or other part: P41212 (Transcription factor ETV6)

MCP-1 = MCP-1 production by human monocytes (ELISA); type: cell-based; settings: Monocyte
Procedure: Freshly isolated human PBMCs were used to purify human monocytes by negative selection using an indirect magnetic labeling system. […] Soluble factors such as cytokines (VEGFa, IL-6 etc.) and chemokines (IL-8, MCP-1, MMP9 etc.) in the culture supernatant were measured using commercial ELISA kits. The in vitro survival of human macrophages was measured using a commercially available CellTiter-Glo® system. Most observed results were repeated in multiple donors (n>5).

Chain of Dyrk3 (O43781 whole entry, species assumed): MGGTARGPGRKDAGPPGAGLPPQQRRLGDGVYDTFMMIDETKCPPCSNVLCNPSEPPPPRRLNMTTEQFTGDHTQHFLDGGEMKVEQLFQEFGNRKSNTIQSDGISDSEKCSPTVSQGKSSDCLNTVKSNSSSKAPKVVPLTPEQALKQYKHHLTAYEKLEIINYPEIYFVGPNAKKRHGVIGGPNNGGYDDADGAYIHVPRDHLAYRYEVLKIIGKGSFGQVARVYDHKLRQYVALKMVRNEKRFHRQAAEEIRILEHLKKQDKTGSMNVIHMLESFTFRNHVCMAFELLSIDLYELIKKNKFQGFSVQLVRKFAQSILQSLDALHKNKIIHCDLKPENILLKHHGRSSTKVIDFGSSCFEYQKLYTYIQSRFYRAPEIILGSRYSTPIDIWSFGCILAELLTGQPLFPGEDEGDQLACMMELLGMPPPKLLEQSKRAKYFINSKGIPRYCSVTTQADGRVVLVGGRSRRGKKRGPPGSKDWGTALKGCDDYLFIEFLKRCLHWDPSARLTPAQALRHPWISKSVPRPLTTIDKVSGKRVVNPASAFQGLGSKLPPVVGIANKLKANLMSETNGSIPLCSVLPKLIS

Compound CNC(=O)c1cc(Oc2ccc3nc(NC4CCCCC4O)sc3c2)ccn1 (stereo not shown) [Compound (I)] has an IC50 (Cdk7 cyclinH MAT1) of over 10 µM, an IC50 (Dyrk3) of over 10 µM and an IC50 (KDR) of over 25 µM. The IC50 (TRKB) was over 10 µM, the inhibition at 0.5 µM (PDGFRKalpha (h); read-out: % inhibition @ 0.5 μM, PDGFRKalpha (h)) was 28% and the inhibition at 5 µM (PDGFRKalpha (h); read-out: % inhibition @ 5 μM, PDGFRKalpha (h)) was 41%. The inhibition at 20 µM (PDGFRKalpha (h); read-out: % inhibition @ 20 μM, PDGFRKalpha (h)) was 55%, the inhibition at 0.5 µM (Khs1 (h); read-out: % inhibition @ 0.5 μM, Khs1 (h)) was 15% and the inhibition at 5 µM (Khs1 (h); read-out: % inhibition @ 5 μM, Khs1 (h)) was 27%. The inhibition at 20 µM (Khs1 (h); read-out: % inhibition @ 20 μM, Khs1 (h)) was 52%, the EC50 (BaF-Tel-FGFR3) was over 10 µM and the EC50 (BaF-PTC3-RET) was over 10 µM. It also gave an EC50 (BAF/Tel-FGFR4-Q4/sACP) of over 10 µM, an EC50 (BAF/Tel-MER-3.2) of over 10 µM and an EC50 (BAF/Tel-JAK2-1.2/sACP) of over 10 µM. For the same compound, the EC50 (BAF/Tel-JAK1-S1.2/sACP) was over 10 µM, the EC50 (BAF/Tel-Src-3.1/sACP) was over 10 µM and the EC50 (BAF/Tel-ZAP70-1.1/sACP) was over 10 µM. For the same compound, the inhibition at 0.05 µM (MCP-1) was 30 to 70%.
